Data published in US10844038B2, “1,2-dithiolane compounds useful in neuroprotection, autoimmune and cancer diseases and conditions” (SABILA BIOSCIENCES LLC, priority 2016, dated 2020).

Experiments:
MEK2 = MEK2 (Homo sapiens (Human), UniProt P36507); assay: KINOMEscan competition binding assay (Kd); conditions: read-out: Kd Values Against MEK Kinases Isoforms: MEK2
MEK4 = MEK4 (Homo sapiens (Human), UniProt P45985); assay: KINOMEscan competition binding assay (Kd); conditions: read-out: Kd Values Against MEK Kinases Isoforms: MEK4
BLK = BLK (Homo sapiens (Human), UniProt P51451); assay: Rabbit reticulocyte lysate assay (KinaseSeeker competition binding); conditions: read-out: IC50 Activity Levels Against SRC Family Kinases: BLK
CSK = CSK (Homo sapiens (Human), UniProt P41240); assay: as above; conditions: at 1 μM
FYN = FYN (Homo sapiens (Human), UniProt P06241); assay: as above; conditions: at 1 μM
HCK = HCK (Homo sapiens (Human), UniProt P08631); assay: as above; conditions: read-out: IC50 Activity Levels Against SRC Family Kinases: HCK
LCK = LCK (Homo sapiens (Human), UniProt P06239); assay: as above; conditions: read-out: IC50 Activity Levels Against SRC Family Kinases: LCK
LYN = LYN (Homo sapiens (Human), UniProt P07948); assay: as above; conditions: at 1 μM
SRC = SRC (Homo sapiens (Human), UniProt P12931); assay: as above; conditions: read-out: IC50 Activity Levels Against SRC Family Kinases: SRC
SRC, sequence (P12931 whole entry, looked up): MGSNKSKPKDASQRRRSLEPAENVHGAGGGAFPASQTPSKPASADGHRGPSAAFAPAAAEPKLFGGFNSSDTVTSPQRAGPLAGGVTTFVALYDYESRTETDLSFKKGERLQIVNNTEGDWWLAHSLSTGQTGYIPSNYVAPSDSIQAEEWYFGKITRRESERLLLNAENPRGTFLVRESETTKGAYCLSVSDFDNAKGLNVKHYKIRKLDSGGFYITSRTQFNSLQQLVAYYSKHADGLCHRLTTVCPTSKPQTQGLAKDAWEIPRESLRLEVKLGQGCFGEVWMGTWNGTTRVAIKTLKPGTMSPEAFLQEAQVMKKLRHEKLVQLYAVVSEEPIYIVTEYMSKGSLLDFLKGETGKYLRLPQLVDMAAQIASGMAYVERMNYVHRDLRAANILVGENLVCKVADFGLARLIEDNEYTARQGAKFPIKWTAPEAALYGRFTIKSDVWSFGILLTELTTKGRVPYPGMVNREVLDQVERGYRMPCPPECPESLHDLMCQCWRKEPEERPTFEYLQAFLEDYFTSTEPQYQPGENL

MEK4, sequence (P45985 whole entry, canonical isoform): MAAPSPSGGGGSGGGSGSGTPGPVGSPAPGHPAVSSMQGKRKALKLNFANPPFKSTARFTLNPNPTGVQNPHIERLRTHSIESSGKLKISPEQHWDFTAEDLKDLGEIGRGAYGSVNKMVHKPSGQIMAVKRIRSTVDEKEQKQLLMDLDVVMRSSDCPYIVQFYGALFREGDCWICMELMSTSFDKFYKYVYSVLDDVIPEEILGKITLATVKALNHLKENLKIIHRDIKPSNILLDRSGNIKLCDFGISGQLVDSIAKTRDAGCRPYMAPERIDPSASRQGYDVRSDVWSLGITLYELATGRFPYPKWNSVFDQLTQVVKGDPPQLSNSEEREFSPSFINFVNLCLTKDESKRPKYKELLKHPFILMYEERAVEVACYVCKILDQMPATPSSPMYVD
HCK, sequence (P08631 whole entry): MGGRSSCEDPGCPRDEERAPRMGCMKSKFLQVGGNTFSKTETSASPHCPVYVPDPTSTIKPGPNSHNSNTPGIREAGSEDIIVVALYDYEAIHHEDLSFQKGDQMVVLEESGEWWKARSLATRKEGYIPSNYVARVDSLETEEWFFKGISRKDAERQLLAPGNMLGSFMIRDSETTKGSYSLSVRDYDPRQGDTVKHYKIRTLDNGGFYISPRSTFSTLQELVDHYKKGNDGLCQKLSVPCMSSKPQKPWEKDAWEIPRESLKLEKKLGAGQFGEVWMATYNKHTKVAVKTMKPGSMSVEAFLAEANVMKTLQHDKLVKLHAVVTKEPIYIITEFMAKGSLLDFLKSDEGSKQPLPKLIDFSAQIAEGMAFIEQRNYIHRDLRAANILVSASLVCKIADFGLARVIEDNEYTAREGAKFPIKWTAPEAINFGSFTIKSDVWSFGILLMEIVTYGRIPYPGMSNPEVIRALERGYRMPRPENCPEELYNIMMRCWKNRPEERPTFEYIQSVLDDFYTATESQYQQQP
LCK, sequence (P06239 whole entry): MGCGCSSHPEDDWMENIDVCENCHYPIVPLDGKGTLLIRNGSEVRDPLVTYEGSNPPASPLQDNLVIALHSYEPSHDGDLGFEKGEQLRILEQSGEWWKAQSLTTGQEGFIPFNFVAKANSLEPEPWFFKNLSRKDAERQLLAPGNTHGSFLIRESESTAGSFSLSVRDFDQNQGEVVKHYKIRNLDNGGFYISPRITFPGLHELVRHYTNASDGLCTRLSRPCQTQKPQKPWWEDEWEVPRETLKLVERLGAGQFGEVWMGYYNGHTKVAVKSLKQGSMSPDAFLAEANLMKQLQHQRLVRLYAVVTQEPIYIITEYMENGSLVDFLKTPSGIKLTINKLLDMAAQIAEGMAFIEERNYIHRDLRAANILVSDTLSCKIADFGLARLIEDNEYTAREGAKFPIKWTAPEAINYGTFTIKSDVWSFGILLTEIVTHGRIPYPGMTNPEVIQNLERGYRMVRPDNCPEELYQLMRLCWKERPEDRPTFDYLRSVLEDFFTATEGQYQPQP
BLK, sequence (P51451 whole entry): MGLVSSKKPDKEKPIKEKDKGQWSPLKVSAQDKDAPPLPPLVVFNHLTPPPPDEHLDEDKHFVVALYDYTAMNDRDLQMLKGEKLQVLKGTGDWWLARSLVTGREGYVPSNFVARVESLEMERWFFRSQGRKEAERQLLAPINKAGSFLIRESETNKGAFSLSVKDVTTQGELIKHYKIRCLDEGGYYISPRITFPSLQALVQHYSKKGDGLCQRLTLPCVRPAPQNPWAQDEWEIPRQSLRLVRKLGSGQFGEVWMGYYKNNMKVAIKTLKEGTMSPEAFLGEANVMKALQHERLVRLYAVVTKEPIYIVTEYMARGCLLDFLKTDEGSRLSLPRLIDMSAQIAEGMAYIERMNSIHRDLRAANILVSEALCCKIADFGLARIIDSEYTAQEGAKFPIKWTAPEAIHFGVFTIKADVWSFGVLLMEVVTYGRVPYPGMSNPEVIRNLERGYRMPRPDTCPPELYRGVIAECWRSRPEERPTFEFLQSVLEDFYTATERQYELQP
FYN, sequence (P06241 whole entry): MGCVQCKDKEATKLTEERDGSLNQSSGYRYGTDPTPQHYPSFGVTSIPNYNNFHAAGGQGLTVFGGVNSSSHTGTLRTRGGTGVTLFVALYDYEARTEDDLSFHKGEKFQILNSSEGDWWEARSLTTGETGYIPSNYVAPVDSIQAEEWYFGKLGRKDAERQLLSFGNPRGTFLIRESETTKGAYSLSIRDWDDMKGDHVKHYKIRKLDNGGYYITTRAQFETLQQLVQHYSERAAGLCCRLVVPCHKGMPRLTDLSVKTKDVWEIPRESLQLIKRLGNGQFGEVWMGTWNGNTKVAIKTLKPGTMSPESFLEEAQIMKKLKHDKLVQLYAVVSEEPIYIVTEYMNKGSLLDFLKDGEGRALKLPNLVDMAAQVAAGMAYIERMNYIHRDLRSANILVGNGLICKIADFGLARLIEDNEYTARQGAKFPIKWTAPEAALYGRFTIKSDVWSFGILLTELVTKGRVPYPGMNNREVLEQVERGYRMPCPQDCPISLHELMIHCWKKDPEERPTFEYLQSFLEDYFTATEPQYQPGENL
LYN, sequence (P07948 whole entry): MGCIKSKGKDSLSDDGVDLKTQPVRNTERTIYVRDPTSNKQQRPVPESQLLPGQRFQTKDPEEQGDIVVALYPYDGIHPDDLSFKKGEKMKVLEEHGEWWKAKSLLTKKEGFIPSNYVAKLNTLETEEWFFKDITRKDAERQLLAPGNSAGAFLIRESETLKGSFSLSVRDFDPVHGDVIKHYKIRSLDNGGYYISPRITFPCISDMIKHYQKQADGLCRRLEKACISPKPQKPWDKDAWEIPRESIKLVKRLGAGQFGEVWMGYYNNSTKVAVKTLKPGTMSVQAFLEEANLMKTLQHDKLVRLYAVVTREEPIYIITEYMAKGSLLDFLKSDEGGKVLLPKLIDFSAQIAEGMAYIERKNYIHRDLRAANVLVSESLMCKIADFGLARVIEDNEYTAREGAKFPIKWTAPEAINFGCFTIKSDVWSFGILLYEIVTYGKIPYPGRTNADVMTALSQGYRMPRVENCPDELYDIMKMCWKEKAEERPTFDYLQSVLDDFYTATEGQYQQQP
MEK2, sequence (P36507 whole entry, canonical isoform): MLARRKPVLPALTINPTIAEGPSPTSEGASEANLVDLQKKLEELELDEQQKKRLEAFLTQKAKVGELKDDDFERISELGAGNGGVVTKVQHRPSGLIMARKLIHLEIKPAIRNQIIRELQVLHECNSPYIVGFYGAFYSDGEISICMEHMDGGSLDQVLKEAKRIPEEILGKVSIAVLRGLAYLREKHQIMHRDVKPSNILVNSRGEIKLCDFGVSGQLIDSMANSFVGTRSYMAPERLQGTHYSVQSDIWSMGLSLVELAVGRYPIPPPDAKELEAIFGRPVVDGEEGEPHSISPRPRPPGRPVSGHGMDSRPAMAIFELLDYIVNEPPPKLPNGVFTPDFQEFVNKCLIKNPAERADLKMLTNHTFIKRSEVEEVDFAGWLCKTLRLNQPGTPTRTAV

Kd (MEK2) | Kd (MEK4) | IC50 (BLK) | % Inhibition Against SRC Family Kinases: CSK (CSK) | % Inhibition Against SRC Family Kinases: FYN (FYN) | IC50 (HCK) | IC50 (LCK) | % Inhibition Against SRC Family Kinases: LYN (LYN) | IC50 (SRC) | SMILES
100 to 999 nM | 1000 to 10000 nM | – | – | – | – | – | – | – | Nc1ncnc2c1c(-c1ccc(Oc3ccccc3)cc1)nn2C[C@H]1SSC[C@H]1O [46 B.]
– | – | 100 to 999 nM | 70% | 77% | 100 to 999 nM | 100 to 999 nM | 57% | 100 to 999 nM | Nc1ncnc2c1c(-c1ccc(Oc3ccccc3)cc1)nn2C[C@H]1SSC[C@@H]1O [43 B.]
